Data set [1] has as its system rats. Nature of the data set: Respiratory depression quantified by pulse oximetry (SpO2) after single epidural bolus. The note with it: for respiratory depression (decrease in SpO2): single epidural dose 10 to 2000 μg, sulfate. The method, then:
Respiratory depression was quantified by pulse oximetry. The animals were removed from their cages, placed in polystyrene rat restraints (Plas Labs, Lansing, Mich.) and allowed to acclimate for 5 minutes. […] Pulse oximetry was performed on 5 to 6 animals at each data point, except for the 50 μg dose where 3 animals were used. The pulse oximetry values of percent hemoglobin oxygen saturation (SpO2) were monitored continuously in real time. The maximum value obtaining during the 3-minute recording period was defined as oxygen saturation.

For data set [2], the system named is rats. Nature of the data set: Antinociception, hot plate test after epidural (or subcutaneous) dose. The format is in vivo, Sprague-Dawley rats. The note with it: 250 μg epidural.
Protocol: Baseline values of nociception following placement of the epidural catheter were determined by subjecting the animals to standard hot plate (52.5±0.5° C.) testing as described in M. S. Wallace et al., (Anesth. Analg. 79:778-786, 1994). Response latency to nociception (in seconds) was measured from the time when the animals were placed on the hot plate to the time when they either licked their hind paw or jumped. The baseline (pretreatment) response latency value was defined as 0% of the maximum possible analgesia (MPA) in each experimental animal. […] Following epidural administration of the test solutions via the catheter emplanted as described above, the epidural catheter was flushed with 10 μl of 0.9% sodium chloride.
Antinociception was determined in 5 or 6 animals for each dose and each drug. To prevent tissue damage to the footpads, a cutoff time of 60 seconds was used. Accordingly, 100% MPA was defined as antinociception lasting ≧60 seconds.
Efficacy and respiratory depression curves were plotted as a function of time for each dose administered. Hot plate responses were calculated as a percentage of the maximum possible analgesia (%MPA) as described in Wallace et al. (supra): [formula]
All areas under the curves were calculated by the trapezoidal rule to the last data point using the RSTRIP computer program [Micromath, Salt Lake City, Utah]. […]

Each structure is given as a SMILES string.

On to `CN1CC[C@]23c4c5ccc(O)c4O[C@H]2[C@@H](O)C=C[C@H]3[C@H]1C5.O=S(=O)(O)O` [MS, morphine sulfate], for which, in the data set with rats [1] (single epidural dose), the delayed respiratory depression entry is given as “no delayed respiratory depression”. For the same compound, the “respiratory depression (decrease in SpO2)” value with rats [1] (listed as free morphine) is listed as “did cause respiratory suppression at high dosages”. Further, in the data set on rats [1], the “respiratory depression (decrease in SpO2)” value was “dose-dependent increase in respiratory depression”. Moreover, in the data set on rats [2], the “peak effect (% of maximum possible analgesia)” value is listed as around 100 % MPA and the “time to decrease to 50% MPA” value is on record as 0.17 days.

The values are drawn from patent US6428529B1, “Epidural administration of therapeutic compounds with sustained rate of release” (SkyePharma Inc., priority 1995, dated 2002).
